In patent US20240287131A1, “PEPTIDE” (AGC Inc., priority 2021, published 2024):

Tested on: HeLa cells
Experiment: Evaluation of ability to permeate cell membrane (uptake into cells, flow cytometry of Alexa Fluor 647 fluorescence)
Assay type: cell-based
Conditions: 1.5 μM sample solution, 37° C., 1 hour; ratio to fluorescent dye 1
Description: A DMSO solution of the synthesized peptide fluorescent conjugates 1, 4, and 5, and fluorescent dye 1 was diluted using a DMEM low-glucose culture solution to a concentration of 1.5 μM, the concentration of the DMSO contained was adjusted to 0.15%, and the resulting solution was used as a sample solution for a cell membrane permeability test.
HeLa cells were seeded in a 96-well cell culture plate 24 hours before peptide treatment (0.5×10^5 cells/well).
The medium of HeLa cells pre-cultured at 37° C. for 24 hours was replaced with a sample solution of the peptide fluorescent conjugates 1, 4, and 5 and the fluorescent dye 1, and the ability to permeate a cell membrane after culturing at 37° C. for 1 hour was evaluated. […] The collected cells were analyzed by flow cytometry (guava easyCyte (trademark) 8) measuring red 2 fluorescence (661/15 nm) for detecting the fluorescent dye (Alexa Fluor647) introduced into the peptide fluorescent conjugate.
Using sample solutions of the peptide fluorescent conjugates 1 and 2, TAT-Alexa, and the fluorescent dye 1 prepared in the same manner as in Test Example 1, the red 2 fluorescence (661/15 nm) was measured and analyzed by flow cytometry by the same procedure as in Test Example 1. […]

Substance: TAT-Alexa: Alexa Fluor 647 C2 Maleimide added to the terminal Cys of Cys-TAT(47-57), commercially available cell-penetrating peptide (YGRKKRRQRRR; N-terminal Cys with Alexa Fluor 647; C-terminal amide; printed: Tyr-Gly-Arg-Lys-Lys-Arg-Arg-Gln-Arg-Arg-Arg-)
- average value of the fluorescence intensities of Alexa Fluor 647 in cells (MFI) relative to cells treated with the fluorescent dye 1: about double
